Source: ChEMBL document CHEMBL3875216, “Synthesis of antimicrobial glucosamides as bacterial quorum sensing mechanism inhibitors” (Bioorg Med Chem, 2017)

Key:
Pseudomonas aeruginosa [1] = test: Growth inhibition of Pseudomonas aeruginosa MH602 at 2 mM after 8 hrs relative to control; settings: MH602, 8 h, read-out: GI
Pseudomonas aeruginosa [2] = test: Growth inhibition of Pseudomonas aeruginosa MH602 at 1 mM after 24 hrs relative to control; settings: MH602, 24 h, read-out: GI
Pseudomonas aeruginosa [3] = test: Growth inhibition of Pseudomonas aeruginosa MH602 at 2 mM after 24 hrs relative to control; settings: MH602, 24 h, read-out: GI
Pseudomonas aeruginosa [4] = test: Inhibition of LasR-dependent quorum sensing activity in Pseudomonas aeruginosa MH602 harboring GFP-fused […] LasB promoter assessed as inhibition of 3-oxo-dodecanoyl HSL-induced GFP expression at 2 mM measured after 8 hrs by fluorescence assay relative to control
Escherichia coli [5] = test: Growth inhibition of Escherichia coli MT102 at 500 uM after 24 hrs relative to control; settings: MT102, 24 h, read-out: GI
Escherichia coli [6] = test: Inhibition of LuxR-dependent quorum sensing activity in Escherichia coli MT102 harboring pJBA132 assessed as inhibition of OHHL-induced GFP expression at 1 mM measured after 8 hrs by fluorescence assay relative to control
Pseudomonas aeruginosa [7] = test: Growth inhibition of Pseudomonas aeruginosa MH602 at 1 mM after 8 hrs relative to control; settings: MH602, 8 h, read-out: GI
Escherichia coli [8] = test: Growth inhibition of Escherichia coli MT102 at 500 uM after 8 hrs relative to control; settings: MT102, 8 h, read-out: GI
Pseudomonas aeruginosa [9] = test: Inhibition of LasR-dependent quorum sensing activity in Pseudomonas aeruginosa MH602 harboring GFP-fused […] LasB promoter assessed as inhibition of 3-oxo-dodecanoyl HSL-induced GFP expression at 2 mM measured after 24 hrs by fluorescence assay relative to control
[10] = system: Pseudomonas aeruginosa PA14; test: Inhibition of quorum sensing-regulated biofilm formation in Pseudomonas aeruginosa PA14 at 2 mM after overnight incubation by crystal violet staining based assay relative to control
Pseudomonas aeruginosa [11] = test: Inhibition of LasR-dependent quorum sensing activity in Pseudomonas aeruginosa MH602 harboring GFP-fused […] LasB promoter assessed as inhibition of 3-oxo-dodecanoyl HSL-induced GFP expression at 500 uM measured after 24 hrs by fluorescence assay relative to control
Escherichia coli [12] = test: Inhibition of LuxR-dependent quorum sensing activity in Escherichia coli MT102 harboring pJBA132 assessed as inhibition of OHHL-induced GFP expression at 2 mM measured after 24 hrs by fluorescence assay relative to control
Pseudomonas aeruginosa [13] = test: Growth inhibition of Pseudomonas aeruginosa MH602 at 500 uM after 8 hrs relative to control; settings: MH602, 8 h, read-out: GI
Escherichia coli [14] = test: Growth inhibition of Escherichia coli MT102 at 2 mM after 8 hrs relative to control; settings: MT102, 8 h, read-out: GI
Escherichia coli [15] = test: Growth inhibition of Escherichia coli MT102 at 2 mM after 24 hrs relative to control; settings: MT102, 24 h, read-out: GI
Escherichia coli [16] = test: Growth inhibition of Escherichia coli MT102 at 1 mM after 8 hrs relative to control; settings: MT102, 8 h, read-out: GI
Escherichia coli [17] = test: Growth inhibition of Escherichia coli MT102 at 1 mM after 24 hrs relative to control; settings: MT102, 24 h, read-out: GI
Escherichia coli [18] = test: Inhibition of LuxR-dependent quorum sensing activity in Escherichia coli MT102 harboring pJBA132 assessed as inhibition of OHHL-induced GFP expression at 500 uM measured after 8 hrs by fluorescence assay relative to control
Pseudomonas aeruginosa [19] = test: Growth inhibition of Pseudomonas aeruginosa MH602 at 500 uM after 24 hrs relative to control; settings: MH602, 24 h, read-out: GI
[20] = system: Pseudomonas aeruginosa PA14; test: Inhibition of quorum sensing-regulated pyocyanin production in Pseudomonas aeruginosa PA14 at 2 mM after 24 hrs relative to control
Pseudomonas aeruginosa [21] = test: Inhibition of LasR-dependent quorum sensing activity in Pseudomonas aeruginosa MH602 harboring GFP-fused […] LasB promoter assessed as inhibition of 3-oxo-dodecanoyl HSL-induced GFP expression at 500 uM measured after 8 hrs by fluorescence assay relative to control
Pseudomonas aeruginosa [22] = test: Inhibition of LasR-dependent quorum sensing activity in Pseudomonas aeruginosa MH602 harboring GFP-fused […] LasB promoter assessed as inhibition of 3-oxo-dodecanoyl HSL-induced GFP expression at 1 mM measured after 8 hrs by fluorescence assay relative to control
Escherichia coli [23] = test: Inhibition of LuxR-dependent quorum sensing activity in Escherichia coli MT102 harboring pJBA132 assessed as inhibition of OHHL-induced GFP expression at 1 mM measured after 24 hrs by fluorescence assay relative to control
Escherichia coli [24] = test: Inhibition of LuxR-dependent quorum sensing activity in Escherichia coli MT102 harboring pJBA132 assessed as inhibition of OHHL-induced GFP expression at 500 uM measured after 24 hrs by fluorescence assay relative to control
Escherichia coli [25] = test: Inhibition of LuxR-dependent quorum sensing activity in Escherichia coli MT102 harboring pJBA132 assessed as inhibition of OHHL-induced GFP expression at 2 mM measured after 8 hrs by fluorescence assay relative to control
Pseudomonas aeruginosa [26] = test: Growth inhibition of Pseudomonas aeruginosa PA14 at 2 mM after 24 hrs relative to control; settings: 2000 µM
Pseudomonas aeruginosa [27] = test: Inhibition of LasR-dependent quorum sensing activity in Pseudomonas aeruginosa MH602 harboring GFP-fused […] LasB promoter assessed as inhibition of 3-oxo-dodecanoyl HSL-induced GFP expression at 1 mM measured after 24 hrs by fluorescence assay relative to control

Compound | inhibition at 2000 µM (Pseudomonas aeruginosa [1]) [%] | inhibition at 1000 µM (Pseudomonas aeruginosa [2]) [%] | inhibition at 2000 µM (Pseudomonas aeruginosa [3]) [%] | inhibition at 500 µM (Escherichia coli [5]) [%] | inhibition (Escherichia coli [6]) [%] | inhibition at 1000 µM (Pseudomonas aeruginosa [7]) [%] | inhibition at 500 µM (Escherichia coli [8]) [%] | inhibition (Pseudomonas aeruginosa [9]) [%] | inhibition [10] [%] | inhibition (Pseudomonas aeruginosa [11]) [%] | inhibition (Escherichia coli [12]) [%] | inhibition at 500 µM (Pseudomonas aeruginosa [13]) [%] | inhibition at 2000 µM (Escherichia coli [14]) [%] | inhibition at 2000 µM (Escherichia coli [15]) [%] | inhibition at 1000 µM (Escherichia coli [16]) [%] | inhibition at 1000 µM (Escherichia coli [17]) [%] | inhibition (Escherichia coli [18]) [%] | inhibition at 500 µM (Pseudomonas aeruginosa [19]) [%] | inhibition [20] [%] | inhibition (Pseudomonas aeruginosa [21]) [%] | also measured
CCCC(=O)N[C@@H]1[C@@H](O)[C@H](O)[C@@H](CO)O[C@H]1O | 29.8 | 0 | 4.4 | 13.5 | 92.7 | 0 | 37.9 | 13.4 | 22.4 | 10.7 | 97.5 | 8.9 | 83.6 | 10.7 | 34.5 | 13.9 | 51.7 | 5.9 | 10.6 | 13.5 | inhibition (Pseudomonas aeruginosa [4]): 79.1%; inhibition (Pseudomonas aeruginosa [22]): 22.5%; inhibition (Escherichia coli [23]): 93.5%; inhibition (Escherichia coli [24]): 46.5%; inhibition (Escherichia coli [25]): 98.4%; growth inhibition (GI) (Pseudomonas aeruginosa [26]): Non-Toxic
CC(=O)OC[C@H]1O[C@@H](OC(C)=O)[C@H](NC(=O)Cc2ccc(Cl)cc2)[C@@H](OC(C)=O)[C@@H]1OC(C)=O | 0 | 0 | 0 | 0 | 4.2 | 0 | 0 | 16.7 | 17.8 | 13.3 | 16.5 | 0 | 0 | 0 | 0 | 0 | 5.2 | 3.4 | 9.3 | 1.4 | inhibition (Pseudomonas aeruginosa [27]): 14.8%; inhibition (Escherichia coli [23]): 8.5%; inhibition (Escherichia coli [24]): 1.3%; inhibition (Escherichia coli [25]): 3.7%; growth inhibition (GI) (Pseudomonas aeruginosa [26]): Non-Toxic
CC(=O)OC[C@H]1O[C@@H](OC(C)=O)[C@H](NC(=O)Cc2ccc(Br)cc2)[C@@H](OC(C)=O)[C@@H]1OC(C)=O | 0 | 0 | 0 | 0 | 5.1 | 0 | 0 | 13.1 | 26.2 | 11.2 | 71.2 | 0 | 0 | 0 | 0 | 0 | 8.4 | 0 | 0.8 | 4.4 | inhibition (Pseudomonas aeruginosa [4]): 3.2%; inhibition (Pseudomonas aeruginosa [27]): 10%; inhibition (Pseudomonas aeruginosa [22]): 6.8%; inhibition (Escherichia coli [23]): 36.1%; inhibition (Escherichia coli [24]): 8.5%; inhibition (Escherichia coli [25]): 8.1%; growth inhibition (GI) (Pseudomonas aeruginosa [26]): Non-Toxic
CCCC(=O)N[C@H]1[C@H](OC(C)=O)O[C@H](COC(C)=O)[C@@H](OC(C)=O)[C@@H]1OC(C)=O | 0 | 0 | 0 | 3 | 21.9 | 0.9 | 9.4 | 22.2 | 7.8 | 2.5 | 23.4 | 3.4 | 0 | 0 | 0 | 5 | 10.1 | 0 | 1.5 | 3.6 | inhibition (Pseudomonas aeruginosa [4]): 10.8%; inhibition (Pseudomonas aeruginosa [22]): 11%; inhibition (Escherichia coli [23]): 4.4%; inhibition (Escherichia coli [24]): 2.1%; inhibition (Escherichia coli [25]): 6.1%; growth inhibition (GI) (Pseudomonas aeruginosa [26]): Non-Toxic
